Results published in ChEMBL document CHEMBL6182926, “Design, Synthesis, and Biological Activity Evaluation of Deuterated Diphenyl Azole Alcohol-Based CYP51 Inhibitors” (J Med Chem, 2025).

Test system: Cryptococcus neoformans
Assay: Antifungal activity against Cryptococcus neoformans CGMCC 2.3161 assessed as reduction in Obtusifoliol at 0.0125 ug/ml measured after 18 hrs incubation by gas chromatography-mass spectrometry (GCMS) analysis
Assay type: functional
Parameters: scale not given: the % may be the effect or the level left
Settings: dose 0.0125 µg/ml

Compound: [2H]C([2H])([2H])N(Cc1ccc(-c2ccc(OC(F)(F)F)cc2)cc1)[C@H](C)[C@](O)(Cn1cncn1)c1ccc(F)cc1F
- Activity: 5.76%
